Entries after “also recorded” stand apart in the source; their conditions may differ.
Assays:
IBA-1 = assay: Microglial IBA-1 expression and activation in CYP-CIPN rats; format: in vivo, rat; settings: oral 8-AG; for effect on CYP-induced increase in IBA-1 expression (microglia): Western immunoblotting
Description: Animals: This study employed female Harlan Sprague Dawley (HSD) rats (3-4 mo; Envigo, Indianapolis, IN) and were divided into the following groups: 1) Control, 2) Cyclophosphamide (CYP, 75 mg/kg i.p. in saline vehicle; administered on days 0, 3 and 6 until sacrifice on day 8); 4) Paclitaxel (2 mg/kg i.p., 2 mg/kg i.p. in saline from a stock solution of 50/50 CremophorEL/ethanol); administered on days 0, 2, 4 and 6 until sacrifice on day 8; 4) 8-aminoguanine (8-AG; 5 mg/kg/day in drinking water; beginning 2 weeks prior to either CYP or PAC and continuing until sacrifice (day 8)). The dose of 8-AG was based on the experiments described above. […] All tissues (spinal cord and hindpaw epidermis) were removed from isoflurane anesthetized rats and the tissue was used for various experimental approaches as described below. At the end of tissue removal, animals were sacrificed by thoracotomy.
Thus, the effectiveness of 8-aminoguanine in CYP—CIPN microglial expression and activation was evaluated.

[1] = tested on: superoxide dismutase (SOD1); assay: SOD1 expression in rat epidermis after sciatic nerve injury, Western immunoblotting; format: in vivo; settings: 8-AG 5 mg/kg/day in drinking water
Description: Animals. This study employed female Harlan Sprague Dawley (HSD) rats (3-4 mo; Envigo, Indianapolis, IN) and were divided into the following groups: 1) Control, 2) Sciatic nerve crush (day 0, sacrifice on day 6); 3) 8-aminoguanine (8-AG; 5 mg/kg/day in drinking water; beginning 2 weeks prior to nerve crush and continuing until sacrifice (day 6)). The dose of 8-AG is based on the work above and published experiments. Further, the water consumption/day was tracked. […] All tissues (hindpaw epidermis) were removed from isoflurane anesthetized rats and the tissue was used for various experimental approaches as described below. At the end of tissue removal, animals were sacrificed by thoracotomy. […]

Nc1nc2[nH]c(N)nc2c(=O)[nH]1 [8-AG, 8-Aminoguanine]
effect on CYP-induced increase in IBA-1 expression (microglia) (IBA-1): normalized | effect on CYP-induced increase in IBA-1 expression (microglia) (IBA-1; listed as 8-aminoguanine): reversed; also recorded: normalized | effect on CYP-induced increase in spinal IBA-1 activation (IBA-1; measured by densitometry): normalized | effect on sciatic nerve injury-induced decrease in SOD1 expression [1]: restored to control values; also recorded: normalized | effect on sciatic nerve injury-induced decrease in SOD1 expression ([1]; listed as 8-Aminoguanine): normalized

Source: patent US20250127787A1, “METHODS FOR TREATING PERIPHERAL NEUROPATHY” (University of Pittsburgh - Of the Commonwealth System of …, priority 2021, published 2025)
